# Laboratory results taken from ChEMBL document CHEMBL5724914, “Linking interpersonal differences in gut microbiota composition and drug biotransformation activity” (2024).
# Test: (§1) The drug is tested on Z-030 corresponding to mouse gut metagenome with ENA study accession number: PRJEB37062 and ENA sample accession number: ERS12561829 for biotransformation under anaerobic condition. The drug concentrations were measured over 9 timepoints collected between 0 and 24 hours of incubation by liquid-chromatography-coupled mass spectrometry (LC–MS)
# Conditions: 2 µM
# Further: call rule not given here.
row,Bacterial Biotransformation,SMILES
1,Compound NOT metabolized,O=C1CCc2ccc(OCCCCN3CCN(c4cccc(Cl)c4Cl)CC3)cc2N1 [ARIPIPRAZOLE]

# Test: as §1, with “Z-029” for “Z-030”, “rat” for “mouse”, “ERS12561828” for “ERS12561829”
# Conditions: 2 µM
row,Bacterial Biotransformation,SMILES
1,Compound NOT metabolized,O=C1CCc2ccc(OCCCCN3CCN(c4cccc(Cl)c4Cl)CC3)cc2N1 [ARIPIPRAZOLE]

# Test: as §1, with “Z-028” for “Z-030”, “ERS12561827” for “ERS12561829”
# Conditions: 2 µM
row,Bacterial Biotransformation,SMILES
1,Compound metabolized,O=C1CCc2ccc(OCCCCN3CCN(c4cccc(Cl)c4Cl)CC3)cc2N1 [ARIPIPRAZOLE]

# Test: as §1, with “Z-027” for “Z-030”, “to” for “to mouse gut”, “ERS12561826” for “ERS12561829”
# Conditions: 2 µM
row,Bacterial Biotransformation,SMILES
1,Compound NOT metabolized,O=C1CCc2ccc(OCCCCN3CCN(c4cccc(Cl)c4Cl)CC3)cc2N1 [ARIPIPRAZOLE]

# Test: as §1, with “Z-026” for “Z-030”, “to” for “to mouse gut”, “ERS12561825” for “ERS12561829”
# Conditions: 2 µM
row,Bacterial Biotransformation,SMILES
1,Compound metabolized,O=C1CCc2ccc(OCCCCN3CCN(c4cccc(Cl)c4Cl)CC3)cc2N1 [ARIPIPRAZOLE]

# Test: as §1, with “Z-025” for “Z-030”, “rabbit” for “mouse”, “ERS12561824” for “ERS12561829”
# Conditions: 2 µM
row,Bacterial Biotransformation,SMILES
1,Compound metabolized,O=C1CCc2ccc(OCCCCN3CCN(c4cccc(Cl)c4Cl)CC3)cc2N1 [ARIPIPRAZOLE]

# Test: as §1, with “Z-024” for “Z-030”, “pig” for “mouse”, “ERS12561823” for “ERS12561829”
# Conditions: 2 µM
row,Bacterial Biotransformation,SMILES
1,Compound metabolized,O=C1CCc2ccc(OCCCCN3CCN(c4cccc(Cl)c4Cl)CC3)cc2N1 [ARIPIPRAZOLE]

# Test: as §1, with “Z-023” for “Z-030”, “to” for “to mouse gut”, “ERS12561822” for “ERS12561829”
# Conditions: 2 µM
row,Bacterial Biotransformation,SMILES
1,Compound metabolized,O=C1CCc2ccc(OCCCCN3CCN(c4cccc(Cl)c4Cl)CC3)cc2N1 [ARIPIPRAZOLE]

# Test: as §1, with “Z-022” for “Z-030”, “ERS12561821” for “ERS12561829”
# Conditions: 2 µM
row,Bacterial Biotransformation,SMILES
1,Compound metabolized,O=C1CCc2ccc(OCCCCN3CCN(c4cccc(Cl)c4Cl)CC3)cc2N1 [ARIPIPRAZOLE]

# Test: as §1, with “Z-021” for “Z-030”, “to” for “to mouse gut”, “ERS12561820” for “ERS12561829”
# Conditions: 2 µM
row,Bacterial Biotransformation,SMILES
1,Compound metabolized,O=C1CCc2ccc(OCCCCN3CCN(c4cccc(Cl)c4Cl)CC3)cc2N1 [ARIPIPRAZOLE]

# Test: as §1, with “Z-020” for “Z-030”, “rabbit” for “mouse”, “ERS12561819” for “ERS12561829”
# Conditions: 2 µM
row,Bacterial Biotransformation,SMILES
1,Compound metabolized,O=C1CCc2ccc(OCCCCN3CCN(c4cccc(Cl)c4Cl)CC3)cc2N1 [ARIPIPRAZOLE]

# Test: as §1, with “Z-019” for “Z-030”, “rat” for “mouse”, “ERS12561818” for “ERS12561829”
# Conditions: 2 µM
row,Bacterial Biotransformation,SMILES
1,Compound NOT metabolized,O=C1CCc2ccc(OCCCCN3CCN(c4cccc(Cl)c4Cl)CC3)cc2N1 [ARIPIPRAZOLE]

# Test: as §1, with “Z-018” for “Z-030”, “pig” for “mouse”, “ERS12561817” for “ERS12561829”
# Conditions: 2 µM
row,Bacterial Biotransformation,SMILES
1,Compound metabolized,O=C1CCc2ccc(OCCCCN3CCN(c4cccc(Cl)c4Cl)CC3)cc2N1 [ARIPIPRAZOLE]

# Test: as §1, with “Z-017” for “Z-030”, “ERS12561816” for “ERS12561829”
# Conditions: 2 µM
row,Bacterial Biotransformation,SMILES
1,Compound metabolized,O=C1CCc2ccc(OCCCCN3CCN(c4cccc(Cl)c4Cl)CC3)cc2N1 [ARIPIPRAZOLE]

# Test: as §1, with “Z-016” for “Z-030”, “ERS12561815” for “ERS12561829”
# Conditions: 2 µM
row,Bacterial Biotransformation,SMILES
1,Compound metabolized,O=C1CCc2ccc(OCCCCN3CCN(c4cccc(Cl)c4Cl)CC3)cc2N1 [ARIPIPRAZOLE]

# Test: as §1, with “Z-014” for “Z-030”, “rat” for “mouse”, “ERS12561814” for “ERS12561829”
# Conditions: 2 µM
row,Bacterial Biotransformation,SMILES
1,Compound metabolized,O=C1CCc2ccc(OCCCCN3CCN(c4cccc(Cl)c4Cl)CC3)cc2N1 [ARIPIPRAZOLE]

# Test: as §1, with “Z-013” for “Z-030”, “rabbit” for “mouse”, “ERS12561813” for “ERS12561829”
# Conditions: 2 µM
row,Bacterial Biotransformation,SMILES
1,Compound metabolized,O=C1CCc2ccc(OCCCCN3CCN(c4cccc(Cl)c4Cl)CC3)cc2N1 [ARIPIPRAZOLE]

# Test: as §1, with “Z-012” for “Z-030”, “to” for “to mouse gut”, “ERS12561812” for “ERS12561829”
# Conditions: 2 µM
row,Bacterial Biotransformation,SMILES
1,Compound NOT metabolized,O=C1CCc2ccc(OCCCCN3CCN(c4cccc(Cl)c4Cl)CC3)cc2N1 [ARIPIPRAZOLE]

# Test: as §1, with “Z-011” for “Z-030”, “ERS12561811” for “ERS12561829”
# Conditions: 2 µM
row,Bacterial Biotransformation,SMILES
1,Compound NOT metabolized,O=C1CCc2ccc(OCCCCN3CCN(c4cccc(Cl)c4Cl)CC3)cc2N1 [ARIPIPRAZOLE]

# Test: as §1, with “Z-010” for “Z-030”, “to” for “to mouse gut”, “ERS12561810” for “ERS12561829”
# Conditions: 2 µM
row,Bacterial Biotransformation,SMILES
1,Compound metabolized,O=C1CCc2ccc(OCCCCN3CCN(c4cccc(Cl)c4Cl)CC3)cc2N1 [ARIPIPRAZOLE]

# Test: as §1, with “Z-009” for “Z-030”, “pig” for “mouse”, “ERS12561809” for “ERS12561829”
# Conditions: 2 µM
row,Bacterial Biotransformation,SMILES
1,Compound metabolized,O=C1CCc2ccc(OCCCCN3CCN(c4cccc(Cl)c4Cl)CC3)cc2N1 [ARIPIPRAZOLE]

# Test: as §1, with “Z-008” for “Z-030”, “to” for “to mouse gut”, “ERS12561808” for “ERS12561829”
# Conditions: 2 µM
row,Bacterial Biotransformation,SMILES
1,Compound metabolized,O=C1CCc2ccc(OCCCCN3CCN(c4cccc(Cl)c4Cl)CC3)cc2N1 [ARIPIPRAZOLE]

# Test: as §1, with “Z-007” for “Z-030”, “rat” for “mouse”, “ERS12561807” for “ERS12561829”
# Conditions: 2 µM
row,Bacterial Biotransformation,SMILES
1,Compound NOT metabolized,O=C1CCc2ccc(OCCCCN3CCN(c4cccc(Cl)c4Cl)CC3)cc2N1 [ARIPIPRAZOLE]

# Test: as §1, with “Z-006” for “Z-030”, “ERS12561806” for “ERS12561829”
# Conditions: 2 µM
row,Bacterial Biotransformation,SMILES
1,Compound metabolized,O=C1CCc2ccc(OCCCCN3CCN(c4cccc(Cl)c4Cl)CC3)cc2N1 [ARIPIPRAZOLE]

# Test: as §1, with “Z-005” for “Z-030”, “to” for “to mouse gut”, “ERS12561805” for “ERS12561829”
# Conditions: 2 µM
row,Bacterial Biotransformation,SMILES
1,Compound metabolized,O=C1CCc2ccc(OCCCCN3CCN(c4cccc(Cl)c4Cl)CC3)cc2N1 [ARIPIPRAZOLE]

# Test: as §1, with “Z-004” for “Z-030”, “to” for “to mouse gut”, “ERS12561804” for “ERS12561829”
# Conditions: 2 µM
row,Bacterial Biotransformation,SMILES
1,Compound NOT metabolized,O=C1CCc2ccc(OCCCCN3CCN(c4cccc(Cl)c4Cl)CC3)cc2N1 [ARIPIPRAZOLE]

# Test: as §1, with “Z-003” for “Z-030”, “pig” for “mouse”, “ERS12561803” for “ERS12561829”
# Conditions: 2 µM
row,Bacterial Biotransformation,SMILES
1,Compound metabolized,O=C1CCc2ccc(OCCCCN3CCN(c4cccc(Cl)c4Cl)CC3)cc2N1 [ARIPIPRAZOLE]

# Test: as §1, with “Z-002” for “Z-030”, “rabbit” for “mouse”, “ERS12561802” for “ERS12561829”
# Conditions: 2 µM
row,Bacterial Biotransformation,SMILES
1,Compound NOT metabolized,O=C1CCc2ccc(OCCCCN3CCN(c4cccc(Cl)c4Cl)CC3)cc2N1 [ARIPIPRAZOLE]

# Test: as §1, with “Z-001” for “Z-030”, “ERS12561801” for “ERS12561829”
# Conditions: 2 µM
row,Bacterial Biotransformation,SMILES
1,Compound NOT metabolized,O=C1CCc2ccc(OCCCCN3CCN(c4cccc(Cl)c4Cl)CC3)cc2N1 [ARIPIPRAZOLE]
